Assay results published in patent US6362212B1, “Oxime derivative and bactericide containing the same as active ingredient” (Shionogi & Company, Ltd., priority 1994, dated 2002).

How the values were obtained:
Sphaerotheca fuliginea = assay: Controlling effect on Sphaerotheca fuliginea by foliage application (pot experiment); type: in vivo; conditions: foliage spray on cucumber (cv. TSUKUBASHIROIBO) first leaves, infected area after 10 days in greenhouse at 20° C.
Experimental: The following Test Examples illustrate the effects of the fungicide of the present invention. (I. Controlling effects on various plant diseases by foliage application (pot experiment)) A test compound was dissolved in a small amount of N,N-dimethylformamide, and the solution was diluted to a given concentration with distilled water containing a spreader. Thus, a liquid sample to be tested was prepared. The liquid sample was sprayed to test plants, and 24 hours thereafter, pathogens were inoculated by the method described below. […] Seeds of cucumber ([…]) were sown in plastic cups (each 9 cm in diameter), followed by cultivation for 2 to 3 weeks. The liquid test sample in the form of a solution or suspension was sprayed on the surface of their first leaves. The pathogen was inoculated to the leaves by spraying a conidia suspension of Sphaerotheca fuliginea which had been cultured on the cucumber leaves. After the inoculation, the plants were kept in a greenhouse at 20° C. for 10 days. Then, the infected area on the leaf was observed, and the percent control was calculated.

[1] = system: Erysiphe graminis f. sp. tritici; assay: Controlling effect on Erysiphe graminis f. sp. tritici by foliage application (pot experiment); type: in vivo; conditions: foliage spray on wheat (cv. NORIN No. 61) seedlings, infected area after 10 days in greenhouse at 20° C.
Experimental: The following Test Examples illustrate the effects of the fungicide of the present invention. (I. Controlling effects on various plant diseases by foliage application (pot experiment)) A test compound was dissolved in a small amount of N,N-dimethylformamide, and the solution was diluted to a given concentration with distilled water containing a spreader. Thus, a liquid sample to be tested was prepared. The liquid sample was sprayed to test plants, and 24 hours thereafter, pathogens were inoculated by the method described below. […] The seeds of wheat (cv.: NORIN No. 61) were sown in plastic cups (each 9 cm in diameter), followed by cultivation for 2 to 3 weeks. The test compound in the form of a solution or suspension was sprayed to the seedlings, and conidia of Erysiphe graminis f. sp. tritici cultured on wheat leaves were dropped on the test plants to inoculate the plants with the pathogen. After the inoculation, the plants were kept in a greenhouse at 20° C. for 10 days. The infected area on the leaf was observed, and the percent control was calculated.

Row | SMILES | Controlling effect on Sphaerotheca fuliginea by foliage application at 500 ppm (percent control) (Sphaerotheca fuliginea) | Controlling effect on ErYsiphe graminis f. sp. tritici by foliage application at 500 ppm (percent control) [1] [percent control]
1 | CON=C(c1ncon1)c1ccccc1COc1ccccc1Cl [compound 805] | 97 | 
2 | CON=C(c1ccccc1COc1ccccc1Cl)n1cncn1 [compound 265] |  | 70
3 | CON=C(C1=NCCN1C)c1ccccc1COc1cccc(C(F)(F)F)c1 (single isomer, unassigned) [1122B] | 100 | 90
4 | CON=C(C1=NCCO1)c1ccccc1COc1cccc(C)c1 [compound 1311] | 70 | 70
5 | CON=C(C1=NCCN1C)c1ccccc1COc1ccccc1 [compound 1101] |  | 90
6 | CON=C(C1=NCCO1)c1ccccc1Oc1ccccc1 (single isomer, unassigned) [1341B] | 70 | 90
7 | CON=C(C1=NCCO1)c1ccccc1Oc1ncc(C(F)(F)F)cc1Cl [compound 1829] |  | 90
8 | CON=C(c1ncno1)c1ccccc1COc1cc(C)ccc1C [compound 1590] | 70 | 
9 | CON=C(c1ccccc1COc1cc(C)ccc1C)c1ccnn1C (single isomer, unassigned) [1554B] |  | 70
10 | CON=C(c1ccccc1COc1ccc(F)cc1)c1nccn1C (single isomer, unassigned) [104B] |  | 70
11 | CON=C(c1ccccc1COc1cc(C)ccc1C)n1cccn1 [compound 294] | 97 | 
12 | CON=C(C1=NCCS1)c1ccccc1Oc1ccccc1 (mixture of isomers) [compound 1515] | 70 | 90
13 | CON=C(c1ccccc1COc1ccc(F)cc1)c1nccn1C (single isomer, unassigned) [104A] | 97 | 90
14 | CON=C(c1ccccc1COc1ccccc1C)c1nccn1C (single isomer, unassigned) [112B] | 90 | 
15 | CON=C(C1=NCCN1)c1ccccc1COc1ccccc1Cl [compound 1455] |  | 70
16 | CON=C(c1ccccc1COc1ccc(C)cc1)n1cncn1 [compound 270] | 97 | 90
17 | CON=C(c1cc(C)no1)c1ccccc1COc1ccccc1Cl (single isomer, unassigned) [605B] | 100 | 90
18 | CON=C(c1ncc[nH]1)c1ccccc1COc1cc(C)ccc1C [compound 1428] | 100 | 70
19 | CON=C(c1cc(C)no1)c1ccccc1COc1ccc(Cl)cc1C (single isomer, unassigned) [641B] | 100 | 90
20 | CON=C(c1ccccc1COc1cccc(C(F)(F)F)c1)c1nccn1C (single isomer, unassigned) [122B] | 100 | 
21 | CON=C(c1ncon1)c1ccccc1COc1cc(C)ccc1C (single isomer, unassigned) [836A] | 100 | 97

Row | SMILES | Controlling effect on Sphaerotheca fuliginea by foliage application at 500 ppm (percent control) (Sphaerotheca fuliginea) | Controlling effect on ErYsiphe graminis f. sp. tritici by foliage application at 500 ppm (percent control) [1] [percent control]
22 | CON=C(C1=NCCN1C)c1ccccc1COc1ccc(C)cc1 [compound 1114] | 70 | 70
23 | C=CCON=C(c1ccon1)c1ccccc1COc1ccccc1C (mixture of isomers) [compound 1667] |  | 70
24 | CON=C(c1cnco1)c1ccccc1COc1cc(C)ccc1C [compound 1734] | 90 | 70
25 | CON=C(c1ccco1)c1ccccc1COc1cc(C)ccc1C (single isomer, unassigned) [1634B] | 70 | 
26 | CON=C(C1=NCCO1)c1ccccc1COc1ccccc1Cl [compound 1305] | 70 | 
27 | CON=C(c1noc(C)n1)c1ccccc1COc1cc(C)ccc1C (single isomer, unassigned) [936B] | 97 | 90
28 | CON=C(c1nnn(C)n1)c1ccccc1COc1ccccc1C [compound 2012] | 100 | 70
29 | CON=C(c1ccccc1COc1cccc(C)c1)c1nccn1C (single isomer, unassigned) [113B] | 90 | 
30 | CON=C(C1=NCCO1)c1ccccc1Oc1ccc(C(F)(F)F)cn1 [compound 1826] | 70 | 
31 | CON=C(C1=NCCN1C)c1ccccc1COc1ccc(C(F)(F)F)cc1 [compound 1123] | 90 | 90
32 | CON=C(C1=NCCN1C)c1ccccc1COc1cccc(C(F)(F)F)c1 (single isomer, unassigned) [1122A] |  | 70
33 | CCON=C(c1ccon1)c1ccccc1COc1ccccc1C (mixture of isomers) [compound 1665] |  | 70
34 | CCON=C(c1ccccc1COc1ccccc1)n1cnc(C)c1 [compound 235] |  | 90
35 | CON=C(c1cc(C)ns1)c1ccccc1COc1cc(C)ccc1C [compound 1654] |  | 70
36 | CON=C(c1nnco1)c1ccccc1COc1ccc(Cl)cc1 [compound 707] | 100 | 90
37 | CON=C(C1=NCCS1)c1ccccc1COc1cc(C)ccc1C [compound 1514] | 97 | 70
38 | CON=C(c1ccccc1COc1ccccc1)c1nccn1C (single isomer, unassigned) [101A] | 70 | 
39 | CON=C(c1noc(C)n1)c1cc(Cl)ccc1Oc1ccc(C(F)(F)F)cn1 [compound 2120] | 70 | 
40 | CON=C(c1ccccc1COc1ccc(-c2ccccc2)cc1)c1nccn1C (single isomer, unassigned) [144B] | 70 | 
41 | CON=C(C1=NCCO1)c1ccccc1COc1ccc(C)cc1 [compound 1312] | 70 | 
42 | CON=C(c1ccccc1COc1cc(Cl)ccc1Cl)c1nccn1C (single isomer, unassigned) [131B] | 100 | 
